# Data: patent US9068081B2, “Thiophene azo dyes and laundry care compositions containing the same” (MILLIKEN & COMPANY, priority 2010, dated 2015)
# Experiment: Aqueous partition value of a dye (water/1-octanol partitioning)
# Assay type: physicochemical
# Conditions: deionized water / 1-octanol 10.0 mL each, absorbance at dye λmax, (Af/Ai)×100%
# Procedure: Dissolve in deionized water to a final volume of 10.0 mL an amount of dye sufficient to provide a solution absorbance value between 0.25 and 1.0, said absorbance being determined at the dye λmax between 400 nm and 750 nm, using a cuvette with 1.0 cm path length. Measure the absorbance of the sample at the dye λmax in a UV/Vis spectrophotometer, then transfer the entire 10.0 mL solution to a 50.0 mL plastic centrifuge tube. Add 10.0 mL of 1-octanol, cap the tube, and mix vigorously for 30 seconds using a Vortex™ mixer. Leave the tube standing undisturbed until the layers cleanly phase separate.
# Using a transfer pipette, withdraw an aliquot of the aqueous (bottom) layer and transfer it to a cuvette with 1.0 cm path length for spectrophotometric analysis. Analyze the solution as before, and quantify the absorbance loss at λmax as “% of Dye Remaining in Aqueous Layer” as detailed below: % of Dye Remaining in Aqueous Layer=Aqueous Partition Value (APV)=(Af/Ai)×100% wherein Ai is the initial solution absorbance at λmax and Af is the final solution absorbance at λmax. II. Method for Determining Hueing Efficiency for Detergents • a.) Two 25 cm×25 cm fabric swatches of 16 oz white cotton interlock knit fabric (270 g/square meter, brightened with Uvitex BNB fluorescent whitening agent, from Test Fabrics. P.O. Box 26, Weston, Pa., 18643) are obtained. • b.) Prepare two one liter aliquots of tap water containing 1.55 g of AATCC standard heavy duty liquid (HDL) test detergent. • c.) Add a sufficient amount the dye to be tested to one of the aliquots from Step b.) above to produce an aqueous solution absorbance of 1 AU. • d.) Wash one swatch from a.) above in one of the aliquots of water containing 1.55 g of AATCC standard heavy duty liquid (HDL) test detergent and wash the other swatch in the other aliquot. Such washing step should be conducted for 30 minutes at room temperature with agitation. After such washing step separately rinse the swatches in tap water and air dry the swatches in the dark. • e.) After rinsing and drying each swatch, the hueing efficiency, DE*eff, of the dye is assessed by determining the L*, a*, and b* value measurements of each swatch using a Hunter LabScan XE reflectance spectrophotometer with D65 illumination, 10° observer and UV filter excluded. The hueing efficiency of the dye is then calculated using the following equation: DE*eff=((L*c−Ls)^2+(a*c−a*s)^2+(b*c−b*s)^2)^1/2 • wherein the subscripts c and s respectively refer to the L*, a*, and b* values measured for the control, i.e., the fabric sample washed in detergent with no dye, and the fabric sample washed in detergent containing the dye to be screened. III. Method for Determining Wash Removability • a.) Prepare two separate 150 ml aliquots of HDL detergent solution, according to AATCC Test Method 61-2003, Test 2A and containing 1.55 g/liter of the AATCC HDL formula in distilled water. • b.) A 15 cm×5 cm sample of each fabric swatch from the Method for Determining of Hueing Efficiency For Detergents described above is washed in a Launderometer for 45 minutes at 49° C. in 150 ml of a the HDL detergent solution prepared according to Step 11. a.) above. • c.) The samples are rinsed with separate aliquots of rinse water and air dried in the dark, and then L*, a*, and b* value measurements of each swatch are taken using a Hunter LabScan XE reflectance spectrophotometer with D65 illumination, 10° observer and UV filter excluded. The amount of residual coloration is assessed by measuring the DE*res, calculated using the following equation: DE*res=((L*c−L*s)^2+(a*c−a*s)^2+(b*c−b*s)^2)^1/2 • wherein the subscripts c and s respectively refer to the L*, a*, and b* values measured for the control, i.e., the fabric sample initially washed in detergent with no dye, and the fabric sample initially washed in detergent containing the dye to be screened. The wash removal value for the dye is then calculated according to the formula: % removal=100×(1−DE*res/DE*eff) C. Test Results […]
row,% Dye in Water Layer (Aqueous Partition Value),SMILES
1,56%,COc1cc(/N=N/c2sc(C#N)c(C)c2C#N)c(C)cc1N(CCOCCOCC[N+](CCO)(CCO)CCO)CCOCC[N+](CCO)(CCO)CCO [Example 22]
2,66%,CC[N+](CC)(CC)CCOCCOCCN(CCOCC[N+](CC)(CC)CC)c1ccc(/N=N/c2sc(C#N)c(C)c2C#N)c(C)c1 [Example 35]
3,75%,COc1cc(/N=N/c2sc(C#N)c(C)c2C#N)c(C)cc1N(CCOCCOCC[N+](C)(C)CCO)CCOCC[N+](C)(C)CCO [Example 21]
4,94%,CC[N+](CC)(CC)CCN(CC[N+](CC)(CC)CC)c1ccc(/N=N/c2sc(C#N)c(C)c2C#N)c(C)c1 [Example 36]

# The remaining lines, values behind:
row,SMILES,% Dye in Water Layer (Aqueous Partition Value)
1,CC[N+](CC)(CC)CCOCCOCCN(CCOCC[N+](CC)(CC)CC)c1cc(OC)c(/N=N/c2sc(C#N)c(C)c2C#N)cc1OC [Example 19],78%
2,CCN(CCOCCOCCOCCOCCn1cc[n+](C)c1)c1ccc(/N=N/c2sc(C#N)c(C)c2C#N)c(C)c1 [Example 13],20%
3,CCN(CC[N+](CC)(CC)CC)c1ccc(/N=N/c2sc(C#N)c(C)c2C#N)c(C)c1 [Example 7],15%
4,COc1cc(/N=N/c2sc(C#N)c(C)c2C#N)c(C)cc1N(CCn1cc[n+](C)c1)CCn1cc[n+](C)c1 [Example 1],97%
5,CCN(CCOCCOCCOCCOCC[N+](CC)(CC)CC)c1ccc(/N=N/c2sc(C#N)c(C)c2C#N)c(C)c1 [Example 12],15%
6,Cc1cc(N(CCn2cc[n+](C)c2)CCn2cc[n+](C)c2)ccc1/N=N/c1sc(C#N)c(C)c1C#N [Example 2],83%
7,CC[N+](CC)(CC)CCOCCOCCN(CCOCC[N+](CC)(CC)CC)c1cc(C)c(/N=N/c2sc(C#N)c(C)c2C#N)cc1OC [Example 18],49%
